According to ChEMBL document CHEMBL1772937, “Fingolimod (FTY720): a recently approved multiple sclerosis drug based on a fungal secondary metabolite” (J Nat Prod, 2011):
Activity calls are given as the source filed them. The rule behind the calls is not given here.

Key:
Rattus norvegicus [1] = test: Toxicity in ip dosed F344 rat lateral thorax transplanted with dorsal skin of LEW rat assessed as concentration required for cause death; type: organism-based; conditions: in vivo
Rattus norvegicus [2] = test: Immunosuppressive activity in F344 rat lateral thorax transplanted with dorsal skin of LEW rat assessed as increase of skin graft survival time at 1 mg/kg, ip; type: functional; conditions: route intraperitoneal
Rattus norvegicus [3] = test: Immunosuppressive activity in F344 rat lateral thorax transplanted with dorsal skin of LEW rat assessed as increase of skin graft survival time at 3 mg/kg, ip; type: functional; conditions: route intraperitoneal
spleen = test: Inhibition of serine palmitoyltransferase in mouse spleen cells; type: cell-based
LNCAP-AI = test: (§1) Antiproliferative activity human LNCAP-AI cells assessed as growth inhibition after 78 hrs by WST-1 assay; type: functional, cell-based
MCF7 = test: Antiproliferative activity against human MCF7 cells assessed as growth inhibition after 78 hrs by WST-1 assay; type: functional, cell-based
SK-BR-3 = test: Antiproliferative activity against human SK-BR-3 cells assessed as growth inhibition after 78 hrs by WST-1 assay; type: functional, cell-based
MDA-MB-231 = test: Antiproliferative activity against human MDA-MB-231 cells assessed as growth inhibition after 78 hrs by WST-1 assay; type: functional, cell-based
HCT-116 = test: Antiproliferative activity against human HCT116 cells assessed as growth inhibition after 78 hrs by WST-1 assay; type: functional, cell-based
SW-620 = test: Antiproliferative activity against human SW620 cells assessed as growth inhibition after 78 hrs by WST-1 assay; type: functional, cell-based
[4] = Immunosuppressive activity in BALB/c/C57BL/6 mouse T cells assessed as inhibition of alloantigen-induced cell proliferation after 96 hrs by measuring [3H]thymidine uptake by mixed lymphocyte reaction assay; type: functional, cell-based; conditions: BALB/c/C57BL/6, T-cell
MGC-803 = test: Antitumor activity against human MGC803 cells xenografted in nude mouse assessed as inhibition of tumor growth at 10 mg/kg for 20 days; type: functional, organism-based; set-up: dose 10 mg/kg
Mus musculus = test: Toxicity in human MGC803 cells xenografted nude mouse at 10 mg/kg for 20 days; type: organism-based, MGC-803; set-up: dose 10 mg/kg; conditions: in vivo, 480 h
[5] = as §1; type: functional, cell-based
Rattus norvegicus [6] = test: Immunosuppressive activity in rat assessed as increase of skin graft survival time at 0.1 mg/kg; type: functional

## CCCCCCCCCCCCCCCCCCC(N)(CO)CO
Rattus norvegicus [1]
  Activity: 10 mg/kg

## CCCCCCCCCCCCCCC(N)(CO)CO
Rattus norvegicus [2]
  Time: 37.3 days
Rattus norvegicus [3]
  Time: 45.5 days
Rattus norvegicus [1]
  Activity: 10 mg/kg
spleen
  inhibition: inactive

## CCCCCCC(O)CCCCCCCCC[C@@H](O)[C@H](O)C(N)(CO)CO (stereo partly drawn)
Rattus norvegicus [2]
  Time: 9.2 days
Rattus norvegicus [3]
  Time: 11 days
Rattus norvegicus [1]
  Activity: 100 mg/kg

## CCCCCCCCc1ccc(CC[C@](N)(/C=C/P(=O)(O)O)CO)cc1
LNCAP-AI
  growth inhibition (GI): inactive
MCF7
  growth inhibition (GI): inactive

## CCCCCCCCc1ccc(CC[C@](N)(CO)COP(=O)(O)O)cc1
SK-BR-3
  growth inhibition (GI): inactive
MDA-MB-231
  growth inhibition (GI): inactive
HCT-116
  growth inhibition (GI): inactive
SW-620
  growth inhibition (GI): inactive
MCF7
  growth inhibition (GI): inactive

## C/C=C/C[C@@H](C)[C@@H](O)[C@H]1C(=O)N[C@@H](CC)C(=O)N(C)CC(=O)N(C)[C@@H](CC(C)C)C(=O)N[C@@H](C(C)C)C(=O)N(C)[C@@H](CC(C)C)C(=O)N[C@@H](C)C(=O)N[C@H](C)C(=O)N(C)[C@@H](CC(C)C)C(=O)N(C)[C@@H](CC(C)C)C(=O)N(C)[C@@H](C(C)C)C(=O)N1C [CYCLOSPORINE]
Rattus norvegicus [2]
  Time: 7.3 days
Rattus norvegicus [3]
  Time: 10.8 days

## CCCCCCCCc1ccc(CCC(N)(CO)CO)cc1 [FINGOLIMOD]
[4]
  IC50: 0.0061 µM
SK-BR-3; SK-BR-3, 78 h
  IC50: 5 µM
MDA-MB-231; MDA-MB-231, 78 h
  IC50: 5 µM
MGC-803
  growth inhibition (GI): Active
Rattus norvegicus [2]
  Time: 39.5 days
Mus musculus
  Activity: Toxic
[5]
  IC50: 5 µM
Rattus norvegicus [3]
  Time: 52 days
HCT-116; HCT-116, 78 h
  IC50: 5 µM
spleen
  inhibition: inactive
SW-620; SW-620, 78 h
  IC50: 5 µM
MCF7; MCF7, 78 h
  IC50: 5 µM

## CCCCCCC(=O)CCCCCC/C=C/C[C@@H](O)[C@H](O)[C@@](N)(CO)C(=O)O [MYRIOCIN]
[4]
  IC50: 0.003 µM
Rattus norvegicus [1]
  Activity: 1 mg/kg
Rattus norvegicus [6]
  Time: 2 days
spleen
  inhibition: Active
